Assay results reported in paper PMC4501720 (PLoS ONE, 2015).

Test system: whole blood cells of group 3 pigs vaccinated with BCG-pAg85A
Assay type: cell-based, pigs (Sus scrofa domestica)

Substance | IFN-γ levels, BCG / pAg85A animal number 1 | IFN-γ levels, BCG / pAg85A animal number 2 | IFN-γ levels, BCG / pAg85A animal number 3 | IFN-γ levels, BCG / pAg85A animal number 4 | IFN-γ levels, BCG / pAg85A animal number 5 | IFN-γ levels, BCG / pAg85A animal number 6
21–40: synthetic overlapping peptide of mature Ag85A, aa 21–40 (DIKVQFQSGGANSPALYLLD; UniProt P9WQP3 64-83, looked up, fragment) | <5 pg/mL | 681 pg/mL | <5 pg/mL | 128 pg/mL | 142 pg/mL | <5 pg/mL
275–294: synthetic overlapping peptide of mature Ag85A, aa 275–294 (KPDLQRALGATPNTGPAPQG; UniProt P9WQP3 318-337, looked up, fragment) | 57 pg/mL | <5 pg/mL | <5 pg/mL | <5 pg/mL | 114 pg/mL | 77 pg/mL
161–180: synthetic overlapping peptide of mature Ag85A, aa 161–180 (PTLIGLAMGDAGGYKASDMW; UniProt P9WQP3 204-223, looked up, fragment) | 1,501 pg/mL | <5 pg/mL | 556 pg/mL | 37 pg/mL | 463 pg/mL | <5 pg/mL
201–220: synthetic overlapping peptide of mature Ag85A, aa 201–220 (IANNTRVWVYCGNGKPSDLG; UniProt P9WQP3 244-263, looked up, fragment) | 21 pg/mL | <5 pg/mL | 1,315 pg/mL | <5 pg/mL | <5 pg/mL | 197 pg/mL
211–230: synthetic overlapping peptide of mature Ag85A, aa 211–230 (CGNGKPSDLGGNNLPAKFLE; UniProt P9WQP3 254-273, looked up, fragment) | 46 pg/mL | <5 pg/mL | 13 pg/mL | <5 pg/mL | <5 pg/mL | 218 pg/mL
221–240: synthetic overlapping peptide of mature Ag85A, aa 221–240 (GNNLPAKFLEGFVRTSNIKF; UniProt P9WQP3 264-283, looked up, fragment) | 470 pg/mL | 4,455 pg/mL | 1,075 pg/mL | <5 pg/mL | 303 pg/mL | 2,980 pg/mL
11–30: synthetic overlapping peptide of mature Ag85A, aa 11–30 (LQVPSPSMGRDIKVQFQSGG; UniProt P9WQP3 54-73, looked up, fragment) | <5 pg/mL | 1,115 pg/mL | <5 pg/mL | <5 pg/mL | 80 pg/mL | <5 pg/mL
Ag85A tub: recombinant E. coli derived histidine-tagged Ag85A of M. tuberculosis | 145,331 pg/mL | 50,084 pg/mL | 68,850 pg/mL | 3,712 pg/mL | 27,544 pg/mL | 14,506 pg/mL
91–108: 18-mer peptide spanning the sequence of Ag85B aa 91–108, used instead of Ag85A 91–110 (GCQTYKWETFLTSELPQW; UniProt P9WQP1 131-148, looked up, fragment) | <5 pg/mL | 2,332 pg/mL | 2,377 pg/mL | 308 pg/mL | 748 pg/mL | <5 pg/mL
261–280: synthetic overlapping peptide of mature Ag85A, aa 261–280 (THSWEYWGAQLNAMKPDLQR; UniProt P9WQP3 304-323, looked up, fragment) | 31 pg/mL | <5 pg/mL | <5 pg/mL | 157 pg/mL | 728 pg/mL | 1,240 pg/mL
241–260: synthetic overlapping peptide of mature Ag85A, aa 241–260 (QDAYNAGGGHNGVFDFPDSG; UniProt P9WQP3 284-303, looked up, fragment) | 40 pg/mL | <5 pg/mL | <5 pg/mL | <5 pg/mL | <5 pg/mL | 66 pg/mL
121–140: synthetic overlapping peptide of mature Ag85A, aa 121–140 (AVVGLSMAASSALTLAIYHP; UniProt P9WQP3 164-183, looked up, fragment) | 16,699 pg/mL | 2,367 pg/mL | 306 pg/mL | <5 pg/mL | 1,023 pg/mL | <5 pg/mL
51–70: synthetic overlapping peptide of mature Ag85A, aa 51–70 (WDINTPAFEWYDQSGLSVVM; UniProt P9WQP3 94-113, looked up, fragment) | 5,083 pg/mL | <5 pg/mL | <5 pg/mL | <5 pg/mL | 3,125 pg/mL | <5 pg/mL
231–250: synthetic overlapping peptide of mature Ag85A, aa 231–250 (GFVRTSNIKFQDAYNAGGGH; UniProt P9WQP3 274-293, looked up, fragment) | 11,639 pg/mL | 13,693 pg/mL | 423 pg/mL | <5 pg/mL | 1,018 pg/mL | 665 pg/mL
71–90: synthetic overlapping peptide of mature Ag85A, aa 71–90 (PVGGQSSFYSDWYQPACGKA; UniProt P9WQP3 114-133, looked up, fragment) | 217 pg/mL | <5 pg/mL | <5 pg/mL | <5 pg/mL | 289 pg/mL | <5 pg/mL
